Measurements taken from patent US6093747A, “1,7,7-trimethyl-bicyclo[2.2.1]heptane derivatives as anxiolytic agents having enhanced receptor specificity” (priority 1996, dated 2000).

Assays:
[1] = target: T1, 5-HT1A (Rattus norvegicus, UniProt P19327); test: Receptor binding assay, 5-HT1A (3H-8-OH-DPAT); design: species or system male Wistar rat; conditions: 3H-8-OH-DPAT 0.7 nM, frontal cortex
T1 construct: from tissue; host or cells: male Wistar rat frontal cortex, membrane fraction
T1 sequence (P19327 1-422): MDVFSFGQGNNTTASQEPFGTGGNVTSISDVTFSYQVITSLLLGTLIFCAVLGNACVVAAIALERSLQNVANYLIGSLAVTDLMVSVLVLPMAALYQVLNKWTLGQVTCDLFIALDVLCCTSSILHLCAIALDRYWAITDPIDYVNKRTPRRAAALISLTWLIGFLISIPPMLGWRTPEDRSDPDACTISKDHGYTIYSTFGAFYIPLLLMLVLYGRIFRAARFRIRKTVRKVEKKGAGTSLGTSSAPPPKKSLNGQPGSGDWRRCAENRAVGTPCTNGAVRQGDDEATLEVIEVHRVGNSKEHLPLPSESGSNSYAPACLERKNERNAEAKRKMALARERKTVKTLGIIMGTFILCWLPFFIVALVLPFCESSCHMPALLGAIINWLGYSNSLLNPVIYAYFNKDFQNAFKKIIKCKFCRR
Experimental: (§1) The different brain regions of 120-200 g male Wistar rats were used for receptor binding assays except for 5-HT2c receptors where binding studies were performed on porcine choroid plexus. Protein content of the membrane fraction was determined as described by Lowry [Lowry, O. H., Rosebrough, M. J., Farr, A. L. and Randall, R. Y.: J. Biol. Chem., 193: 265-275, 1951].
frontal 5-HT Peroutka, S.
0.7 nM cortex (10 μM) J. J.

[2] = target: T2, 5-HT2A (Rattus norvegicus, UniProt P14842); test: Receptor binding assay, 5-HT2A (3H-ketanserin); design: species or system male Wistar rat; conditions: 3H-ketanserin 1.0 nM, frontal cortex
T2 construct: from tissue; host or cells: male Wistar rat frontal cortex, membrane fraction
Experimental: as §1
5-HT2A ^3 H-ketanserin frontal cyprohepta- Leysen, J. E.
1.0 nM cortex dine et al.: Mol.

[3] = target: T3, 5-HT2C (Sus scrofa, UniProt K7GSR7); test: biochemical; format: binding, porcine
T3 construct: from tissue; host or cells: porcine choroid plexus
T3 sequence (K7GSR7 1-457): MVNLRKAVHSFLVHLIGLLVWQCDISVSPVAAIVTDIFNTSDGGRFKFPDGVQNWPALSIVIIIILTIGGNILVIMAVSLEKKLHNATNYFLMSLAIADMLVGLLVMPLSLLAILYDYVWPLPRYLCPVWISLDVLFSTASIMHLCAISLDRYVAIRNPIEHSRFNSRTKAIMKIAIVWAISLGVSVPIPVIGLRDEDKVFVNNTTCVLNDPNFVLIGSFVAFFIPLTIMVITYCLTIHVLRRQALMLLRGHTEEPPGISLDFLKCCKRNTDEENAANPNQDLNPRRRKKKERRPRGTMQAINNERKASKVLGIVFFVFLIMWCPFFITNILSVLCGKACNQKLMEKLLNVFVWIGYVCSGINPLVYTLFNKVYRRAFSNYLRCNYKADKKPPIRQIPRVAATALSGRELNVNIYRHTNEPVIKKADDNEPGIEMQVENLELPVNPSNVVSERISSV
Experimental: as §1
(§2) 5-HT2C ^3 H-mesulergin choroid mianserin Pazos, A. et
(§3) 1.0 nM plexus (1 μM) al. Eur. J.

[4] = tested on: 5-HT2C; test: biochemical; format: binding, porcine; conditions: among 5-HT receptors
Experimental: as §1, §2, §3

[5] = target: T4, D1 (Rattus norvegicus, UniProt P18901); test: Receptor binding assay, D1 (3H-SCH 23390); design: species or system male Wistar rat; conditions: 3H-SCH 23390 0.78 Nm, striatum
T4 construct: from tissue; host or cells: male Wistar rat striatum, membrane fraction
Experimental: as §1
D1 ^3 H-SCH 23390 striatum cis- Hietala J. et
0.78 Nm flupentixol al., Neurosci.

[6] = target: T5, D2 (Rattus norvegicus, UniProt P61169); test: Receptor binding assay, D2 (3H-spiperone); design: species or system male Wistar rat; conditions: 3H-spiperone 0.5 nM, striatum
T5 construct: from tissue; host or cells: male Wistar rat striatum, membrane fraction
Experimental: as §1
D2 ^3 H-spiperone striatum butaclamol Leff, S. et al.,

[7] = target: T6, Sigma (Rattus norvegicus, UniProt Q9R0C9); test: Receptor binding assay, Sigma (3H-pentazocine); design: species or system male Wistar rat; conditions: for Ki: Sigma, 3H-pentazocine 3.0 nM, cerebellum
T6 construct: from tissue; host or cells: male Wistar rat cerebellum, membrane fraction
Experimental: as §1
Sigma ^3 H-pentazocine cerebellum haloperidol Costa B. R. et
3.0 nM (10 μM) al., Febs Lett.,

[8] = Elevated plus-maze test; format: in vivo, male Sprague-Dawley rats; conditions: for minimal effective dose: Rattus norvegicus, 1 h, treated 60 minutes prior to the test, based on times spent in the open arms, read-out: MED (minimal effective dose), elevated plus maze; for effect in the elevated plus maze test (in words): rat, in vivo
Experimental: The elevated plus-maze consisted of two open and two 40 cm wall enclosed arms of the same size (50×15 cm) arranged in the shape of a cross. The arms of the same type were opposite to each other. The junction of the four arms forms a central square area (15×15 cm). The apparatus is made of wooden material elevated to a height of 50 cm from the floor and illuminated by a dim light from above.
Male Sprague-Dawley rats weighing 220-260 g were treated with the test or reference compounds 60 minutes prior to the test. They were then placed onto the central square area and were subjected to the test for 5 minutes. The following parameters were determined:
Time spent in the open arms;
Time spent in the closed arms;
Number of entries into the open arms;
Number of entries into the closed arms.
A compound was considered to be effective when significant increase was found either in the time spent in the open arms or in the number of entries into the open arms when compared to the control animals. Minimum Effective Doses (MED) were determined based on the times spent in the open arms for each compound examined (Table II) [Pelow et al., J. Neurosci. Methods, 14: 149-169, 1985].

[9] = Inhibition of mCPP induced anxiety (light-dark apparatus); format: in vivo, male Wistar rats; conditions: for minimal effective dose: Rattus norvegicus, ip, treated twenty minutes before mCPP s.c., read-out: MED (minimal effective dose), inhibition of mCPP induced anxiety; for effect on mCPP induced anxiety (in words): rat model, Compound A up to 3.0 mg/kg i.p.
Experimental: The tests were carried out on male Wistar rats weighing 160-220 g according to Kennett [Kennett, G. A., Whitton, P., Shah, K. and Curzon, G. Eur. J. Pharmacol., 164: 445-454, 1989.]. The animals were treated either with the test compound or with vehiculum (0.4% methyl cellulose solution). Twenty minutes later either mCPP (m-chlorophenyl-piperazin) or physiological saline was administered subcutaneously. The animals were kept in the dark for additional 20 minutes, then they were placed into the light-dark apparatus (Omnitech, Digiscan, Model RXYZCM16) and their motor activity was recorded for five minutes. The testbox consisted of one dark and one lit compartment of the same size (39×20×29 cm) with an 8×8 gate providing free passage for the animals between the two compartments. The lit area was illuminated by a 40 W red light bulb 30 cm above the floor. Motor activity was recorded as the number of interruptions of the infrared light beams (16 beams 2 cm and 16 beams 8 cm above the floor). The number of crossing in the lit compartment was considered as the measure of antagonistic effect on mCPP induced anxiety. Data were statistically analyzed by one way ANOVA followed by Dunnet's t-test.

[10] = Inhibition of spontaneous motor activity; format: in vivo, mice; conditions: for ED50: Mus musculus, 1 h, treated 60 minutes prior to the test, ID50 by linear regression analysis
Experimental: Inhibition of Spontaneous Motor Activity
Spontaneous motor activity was measured as described earlier [Borsy et al., Arch. Int. Pharmacodyn. 124: 1-, 1960.] in a 10 box apparatus (Dews) 3--3 mice in each compartment. Mice were treated either with test compounds or with vehiculum 60 minutes prior to the test. The number of interruptions of the infrared light beams was counted, ID50 values were calculated by linear regression analysis (Table IV).

[11] = animal or person; format: in vivo, male NMRI mice; conditions: for ED50: Mus musculus, po, 1 h, read-out: ED50, potentiation of hexobarbital induced narcosis
Experimental: Potentiation of Hexobarbital Induced Narcosis
Male NMRI mice weighing 20-25 g were treated p.o. with the test compound or with vehiculum in 20 ml/kg volume 60 minutes prior to the iv. injection of 40 mg/kg (10 ml/kg) hexobarbital. The sleeping animals were placed on a flat surface lying on their left side and the accurate sleeping and awakening times were recorded. The animals were considered to be awaken when they rolled up from their side.
Sleeping times 2.5 times higher than the average of the control group were considered as criterion for potentiation (cut up method), results were expressed as percent increase compared to control values, ED50 values were calculated from the dose response curves according to Litchfield-Wilcoxon.

T6 sequence (Q9R0C9 whole entry): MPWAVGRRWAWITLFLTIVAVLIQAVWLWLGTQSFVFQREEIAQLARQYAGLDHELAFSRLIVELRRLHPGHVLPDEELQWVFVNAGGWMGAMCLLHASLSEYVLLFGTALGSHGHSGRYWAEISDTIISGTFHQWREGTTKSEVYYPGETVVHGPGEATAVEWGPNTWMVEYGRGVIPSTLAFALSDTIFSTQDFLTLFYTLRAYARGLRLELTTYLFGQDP
T5 sequence (P61169 whole entry): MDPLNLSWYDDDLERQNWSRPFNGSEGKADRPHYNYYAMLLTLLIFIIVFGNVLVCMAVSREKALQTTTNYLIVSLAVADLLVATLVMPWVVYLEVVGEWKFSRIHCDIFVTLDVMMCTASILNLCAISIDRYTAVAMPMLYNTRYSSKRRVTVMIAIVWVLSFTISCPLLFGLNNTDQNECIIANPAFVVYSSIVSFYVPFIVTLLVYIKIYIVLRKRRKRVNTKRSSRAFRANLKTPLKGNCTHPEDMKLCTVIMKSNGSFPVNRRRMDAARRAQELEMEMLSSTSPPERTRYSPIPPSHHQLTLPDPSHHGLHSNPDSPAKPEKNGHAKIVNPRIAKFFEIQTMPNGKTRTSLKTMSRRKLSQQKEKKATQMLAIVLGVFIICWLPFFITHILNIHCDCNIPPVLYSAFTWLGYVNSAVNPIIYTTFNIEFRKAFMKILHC
T2 sequence (P14842 whole entry): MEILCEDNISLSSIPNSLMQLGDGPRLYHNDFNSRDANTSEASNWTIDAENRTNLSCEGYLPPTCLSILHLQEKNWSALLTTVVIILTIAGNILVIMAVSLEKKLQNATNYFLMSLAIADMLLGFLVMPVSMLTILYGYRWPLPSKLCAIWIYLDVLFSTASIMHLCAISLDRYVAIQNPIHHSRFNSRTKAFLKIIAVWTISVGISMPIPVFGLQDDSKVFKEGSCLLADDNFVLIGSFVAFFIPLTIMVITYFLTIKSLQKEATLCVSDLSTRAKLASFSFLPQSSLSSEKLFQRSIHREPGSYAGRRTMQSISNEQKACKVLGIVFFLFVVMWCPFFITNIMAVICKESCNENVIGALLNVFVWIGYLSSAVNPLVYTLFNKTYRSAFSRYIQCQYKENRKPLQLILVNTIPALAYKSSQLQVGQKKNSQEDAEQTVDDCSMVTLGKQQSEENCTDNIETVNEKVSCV
T4 sequence (P18901 whole entry): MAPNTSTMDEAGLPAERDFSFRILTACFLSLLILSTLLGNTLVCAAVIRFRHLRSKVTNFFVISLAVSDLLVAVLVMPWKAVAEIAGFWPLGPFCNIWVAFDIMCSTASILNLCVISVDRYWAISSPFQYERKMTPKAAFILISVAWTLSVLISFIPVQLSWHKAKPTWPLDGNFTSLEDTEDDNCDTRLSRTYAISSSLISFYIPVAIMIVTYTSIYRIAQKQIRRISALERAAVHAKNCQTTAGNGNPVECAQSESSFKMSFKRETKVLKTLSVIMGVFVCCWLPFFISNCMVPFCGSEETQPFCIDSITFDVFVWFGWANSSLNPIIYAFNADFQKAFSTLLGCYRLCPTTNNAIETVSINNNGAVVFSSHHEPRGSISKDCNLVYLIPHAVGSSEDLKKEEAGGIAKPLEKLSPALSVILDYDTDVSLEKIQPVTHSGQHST

CNCCO[C@]1(c2ccccc2)C[C@H]2CC[C@]1(C)C2(C)C [Compound A, (1R,2S,4R)-(-)-2-phenyl-2-methylaminoethoxy-1,7,7-trimethyl-bicyclo[2.2.1]heptane-fumarate]
Ki [1]: > 10000 nM
Ki [2]: > 100 nM
Ki [3]: 20 nM
selectivity of binding among 5-HT receptors (in words) [4]: binds only to 2C
Ki [5]: 10000 nM
Ki [6]: > 100 nM
binding at sigma receptors (in words) [7]: does not
Ki [7]: > 100 nM
minimal effective dose [8]: 1 mg/kg
effect in the elevated plus maze test (in words) [8]: effective in the elevated plus maze test
minimal effective dose [9]: > 3 mg/kg
effect on mCPP induced anxiety (in words) [9]: completely ineffective up to 3.0 mg/kg i.p.
ED50 [10]: 57 mg/kg
inhibition of spontaneous motor activity (in words) ([10]; sedato-hypnotic side effect, compared to Compound B): inhibited the spontaneous motor activity in higher doses only
ED50 [11]: 4 mg/kg
potentiation of hexobarbital induced narcosis (in words) ([11]; mouse, in vivo): potentiated the hexobarbital induced narcosis to a lesser extent

CN(C)CCO[C@]1(c2ccccc2)C[C@H]2CC[C@]1(C)C2(C)C [Compound B, (1R,2S,4R)-(-)-2-phenyl-2-dimethylaminoethoxy-1,7,7-trimethyl-bicyclo[2.2.1]heptane-fumarate, reference compound]
Ki [1]: > 10000 nM
Ki [2]: 35 nM
Ki [3]: 9 nM
selectivity of binding among 5-HT receptors (in words) [4]: not selective at 2C
Ki [5]: > 1000 nM
Ki [6]: > 100 nM
binding at sigma receptors (in words) [7]: shows significant binding at sigma receptors
Ki [7]: 52 nM
minimal effective dose [8]: > 10 mg/kg
effect in the elevated plus maze test (in words) [8]: did not show any effect
minimal effective dose [9]: 0.5 mg/kg
effect on mCPP induced anxiety (in words) [9]: significantly antagonized the mCPP induced anxiety
ED50 [10]: 31.5 mg/kg
ED50 [11]: 0.5 mg/kg
